Reference: ChEMBL document CHEMBL1128428, “Inhibition of matrix metalloproteinases by hydroxamates containing heteroatom-based modifications of the P1' group” (J Med Chem, 1995)
pKi: −log10 of the molar value.

Assays:
Interstitial collagenase = target: T1, Interstitial collagenase (Homo sapiens, UniProt P03956)
T1 sequence (P03956 whole entry): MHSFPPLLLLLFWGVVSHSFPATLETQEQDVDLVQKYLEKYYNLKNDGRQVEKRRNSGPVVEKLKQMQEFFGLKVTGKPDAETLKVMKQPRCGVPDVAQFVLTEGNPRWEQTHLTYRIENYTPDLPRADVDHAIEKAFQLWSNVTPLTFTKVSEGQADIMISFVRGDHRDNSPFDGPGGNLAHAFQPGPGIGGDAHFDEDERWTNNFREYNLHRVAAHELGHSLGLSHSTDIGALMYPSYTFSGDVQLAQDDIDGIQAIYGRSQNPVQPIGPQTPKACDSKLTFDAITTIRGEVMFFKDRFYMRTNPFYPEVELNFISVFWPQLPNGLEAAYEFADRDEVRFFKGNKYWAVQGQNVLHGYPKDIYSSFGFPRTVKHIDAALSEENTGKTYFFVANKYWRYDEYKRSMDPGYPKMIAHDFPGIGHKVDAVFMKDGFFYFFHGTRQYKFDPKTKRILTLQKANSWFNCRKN

Neutrophil collagenase = Neutrophil collagenase (Homo sapiens, UniProt P22894)
Sequence of Neutrophil collagenase (P22894 whole entry): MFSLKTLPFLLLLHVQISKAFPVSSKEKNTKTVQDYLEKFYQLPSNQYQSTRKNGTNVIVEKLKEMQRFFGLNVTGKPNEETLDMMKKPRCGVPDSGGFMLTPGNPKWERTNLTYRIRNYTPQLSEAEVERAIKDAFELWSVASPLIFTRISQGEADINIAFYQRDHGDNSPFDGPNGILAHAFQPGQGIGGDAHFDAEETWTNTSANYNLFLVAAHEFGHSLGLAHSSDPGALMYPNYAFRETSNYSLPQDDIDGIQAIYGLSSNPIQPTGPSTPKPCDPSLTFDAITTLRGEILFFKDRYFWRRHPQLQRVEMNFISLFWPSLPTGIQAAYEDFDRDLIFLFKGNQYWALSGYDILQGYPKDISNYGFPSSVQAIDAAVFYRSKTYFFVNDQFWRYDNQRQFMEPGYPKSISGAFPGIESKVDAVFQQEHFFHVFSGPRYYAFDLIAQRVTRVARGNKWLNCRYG

CC(C)(C)[C@H](NC(=O)[C@H](CCCCOc1ccccc1)CC(=O)NO)C(=O)NCCC(=O)O
pKi (Interstitial collagenase): 6.85

CNC(=O)[C@@H](NC(=O)[C@H](CCCCOc1ccc(C(C)(C)C)cc1)CC(=O)NO)C(C)(C)C
pKi (Interstitial collagenase): 6.46

CCCC(=O)NCCCC[C@H](CC(=O)NO)C(=O)N[C@@H](Cc1ccccc1)C(=O)NC
pKi (Neutrophil collagenase): 7.92

CNC(=O)[C@@H](NC(=O)[C@H](CCCCOc1ccc(Cl)c(Cl)c1)CC(=O)NO)C(C)(C)C
pKi (Interstitial collagenase): 7.02

CNC(=O)[C@@H](NC(=O)[C@H](CCCCOc1ccccc1)CC(=O)NO)C(C)(C)C
pKi (Interstitial collagenase): 8.52

CC(C)(C)[C@H](NC(=O)[C@H](CCCCOc1ccc(Cl)cc1)CC(=O)NO)C(=O)NCCCN1CCOCC1
pKi (Interstitial collagenase): 8.00

CNC(=O)[C@@H](NC(=O)[C@H](CCCCOc1ccc(F)cc1)CC(=O)NO)C(C)(C)C
pKi (Interstitial collagenase): 7.96

CNC(=O)[C@H](Cc1ccccc1)NC(=O)[C@H](CCCCOc1ccccc1)CC(=O)NO
pKi (Neutrophil collagenase): > 8.70

CCCCCc1ccc(OCCCC[C@H](CC(=O)NO)C(=O)N[C@H](C(=O)NC)C(C)(C)C)cc1
pKi (Interstitial collagenase): 5.72

CC(C)(C)[C@H](NC(=O)[C@H](CCCCOc1ccc(Cl)cc1)CC(=O)NO)C(=O)NCCc1ccccc1
pKi (Interstitial collagenase): 6.24

CNC(=O)[C@H](Cc1ccccc1)NC(=O)[C@H](CCCC(=O)NCc1ccccc1)CC(=O)NO
pKi (Neutrophil collagenase): 7.52 | pKi (Interstitial collagenase): 5.02

CC(C)(C)[C@H](NC(=O)[C@H](CCCCOc1ccccc1)CC(=O)NO)C(=O)NCCCC(=O)O
pKi (Interstitial collagenase): 7.21

CNC(=O)[C@@H](NC(=O)[C@H](CCCCOc1cccc(Cl)c1)CC(=O)NO)C(C)(C)C
pKi (Interstitial collagenase): 6.84

CNC(=O)[C@@H](NC(=O)[C@H](CCCCOc1ccc(OC)cc1)CC(=O)NO)C(C)(C)C
pKi (Interstitial collagenase): > 9.00

CNC(=O)[C@H](Cc1ccccc1)NC(=O)[C@H](CCCCCOc1ccccc1)CC(=O)NO
pKi (Neutrophil collagenase): > 8.70

CC(C)(C)[C@H](NC(=O)[C@H](CCCCOc1ccc(Cl)cc1)CC(=O)NO)C(=O)NCCc1ccc(S(N)(=O)=O)cc1
pKi (Interstitial collagenase): 7.21

CCCNC(=O)CCC[C@H](CC(=O)NO)C(=O)N[C@@H](Cc1ccccc1)C(=O)NC
pKi (Neutrophil collagenase): 8.70

CNC(=O)[C@H](Cc1ccccc1)NC(=O)[C@H](CCCCCOCc1ccccc1)CC(=O)NO
pKi (Neutrophil collagenase): 8.70

CNC(=O)[C@@H](NC(=O)[C@H](CCCCOc1cccc(C)c1)CC(=O)NO)C(C)(C)C
pKi (Interstitial collagenase): 7.80

CNC(=O)[C@H](Cc1ccccc1)NC(=O)[C@H](CCCCO)CC(=O)NO
pKi (Interstitial collagenase): 7.19

CNC(=O)[C@H](Cc1ccccc1)NC(=O)[C@H](CCCC(=O)NCCc1ccccc1)CC(=O)NO
pKi (Neutrophil collagenase): 7.49 | pKi (Interstitial collagenase): 5.89

CNC(=O)[C@H](Cc1ccccc1)NC(=O)[C@H](CCCCCO)CC(=O)NO
pKi (Neutrophil collagenase): 8.40 | pKi (Interstitial collagenase): 7.51

CC(C)(C)[C@H](NC(=O)[C@H](CCCCOc1ccc(Cl)cc1)CC(=O)NO)C(=O)NCCc1ccccn1
pKi (Interstitial collagenase): 7.10

CCCc1ccc(OCCCC[C@H](CC(=O)NO)C(=O)N[C@H](C(=O)NC)C(C)(C)C)cc1
pKi (Interstitial collagenase): 6.77

CC(C)(C)[C@H](NC(=O)[C@H](CCCCOc1ccc(Cl)cc1)CC(=O)NO)C(=O)NCCN1CCCC1
pKi (Interstitial collagenase): 7.10

CNC(=O)[C@@H](NC(=O)[C@H](CCCCOc1ccc(C(C)C)cc1)CC(=O)NO)C(C)(C)C
pKi (Interstitial collagenase): 7.52

CNC(=O)[C@@H](NC(=O)[C@H](CCCCOc1cccc(OC)c1)CC(=O)NO)C(C)(C)C
pKi (Interstitial collagenase): 7.14
